In ChEMBL document CHEMBL1141437, “Lipoperoxidation and cyclooxygenase enzyme inhibitory piperidine alkaloids from Cassia spectabilis green fruits” (J Nat Prod, 2007):

Tests used:
[1] = Inhibition of lipid peroxidation at 100 ppm after 21 mins; type: functional
[2] = Inhibition of AAPH-induced lipid peroxidation; type: functional; settings: dose or concentration not given here
[3] = biological target: T1, Prostaglandin G/H synthase 1 (Ovis aries) (UniProt P05979); experiment: Inhibition of ram seminal vesicle COX1 at 100 ppm; type: tissue-based
T1 sequence (whole entry): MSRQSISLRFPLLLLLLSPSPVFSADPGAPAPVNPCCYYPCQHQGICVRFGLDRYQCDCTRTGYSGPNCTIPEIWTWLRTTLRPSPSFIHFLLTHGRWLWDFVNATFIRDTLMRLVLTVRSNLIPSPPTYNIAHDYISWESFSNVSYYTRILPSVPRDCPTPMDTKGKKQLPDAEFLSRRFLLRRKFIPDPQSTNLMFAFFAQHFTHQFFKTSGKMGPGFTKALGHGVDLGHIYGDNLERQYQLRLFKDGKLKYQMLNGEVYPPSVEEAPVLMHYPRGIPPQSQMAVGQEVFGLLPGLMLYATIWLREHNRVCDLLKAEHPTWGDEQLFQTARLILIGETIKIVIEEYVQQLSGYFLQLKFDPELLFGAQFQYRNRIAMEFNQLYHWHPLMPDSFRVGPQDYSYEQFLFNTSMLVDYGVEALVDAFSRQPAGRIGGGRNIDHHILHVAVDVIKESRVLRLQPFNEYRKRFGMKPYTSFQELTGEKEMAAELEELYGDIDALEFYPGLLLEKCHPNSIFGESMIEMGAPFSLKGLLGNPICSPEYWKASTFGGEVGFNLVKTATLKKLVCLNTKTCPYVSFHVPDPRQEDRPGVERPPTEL

[4] = DPPH radical scavenging activity assessed as absorption change at 60 ppm by spectrophotometry; type: functional

Row | Structure (SMILES) | inhibition [1] [%] | inhibition [2] [%] | inhibition [3] [%] | deltaA [4] [%]
1 | CC(=O)CCCCCCCCCCCC[C@H]1CC[C@@H](OC(C)=O)[C@@H](C)N1 | 75 | 50 | 58 | < 10
2 | COc1cc(/C=C/C(=O)O[C@@H]2CC[C@H](CCCCCCCCCCC(C)=O)N[C@@H]2C)ccc1O |  | 50 | 33 | 40
3 | CC(=O)CCCCCCCCCCCC[C@H]1CC[C@@H](O)[C@@H](C)N1 | 75 | 50 | 40 | < 10
4 | C[C@@H]1O[C@@H](OC[C@H]2O[C@@H](Oc3c(-c4ccc(O)c(O)c4)oc4cc(O)cc(O)c4c3=O)[C@H](O)[C@@H](O)[C@@H]2O)[C@H](O)[C@H](O)[C@H]1O |  |  |  | 92
